Experimental data as given in patent publication US20100062437A1, “PARALLEL PROFILLING OF SIGNALING PATHWAYS” (priority 2007, published 2010).

Tests used:
DLD-1 cells = test: Degradation of long-lived proteins (proteolysis) in DLD-1 cells; format: cell-based, human; conditions: for effect on ouabain-induced increase in protein degradation: 20 mM NH4Cl and 100 μM leupeptine or 10 mM 3-methyladenine during the chase
From the text: The Na^+/K^+-ATPase is the common target of ouabain, digoxin, and digitoxin (Buckalew, 2005). Na^+/K^+-ATPase inhibition induces a plethora of effects including (a) disruption of the Na^+/K^+ gradient and consequent increase in intracellular [Ca^2+] (Grapengiesser et al., 1993), (b) interference with amino acid uptake (Johnson et al., 1986), and (c) the production of reactive oxygen species resulting in oxidative damage to proteins and organelles (Xie et al., 1999). Each of these individual events is either sufficient or necessary to promote autophagy. The latter maintains cell viability by furnishing essential biochemical building blocks via degradation of existing proteins and organelles in lysosomes (Levine and Klionsky, 2004). However, the effect of ouabain, or its cardiotonic congeners, on autophagy has not been examined. The later was explored by measuring rates of degradation of long-lived proteins, the preferential substrate for lysosomal degradation, in DLD-1 cells. […] The latter implies that macroautophagy, the degradation of sequestered material in a vesicular-based fashion, along with other types of autophagy (i.e. chaperone-mediated autophagy and microautophagy) contribute to ouabain-induced proteolysis.
Intracellular Protein Turnover. Rates of protein synthesis were measured in confluent cells as the incorporation of [3H]leucine [10 μCi/ml (1 Ci=37 GBq)] into acid-insoluble material in the presence of an excess (2.8 mM) of unlabeled leucine in the medium (to minimize differences due to alteration of amino acid transport and/or intracellular amino acid pool sizes). 28 To measure degradation of long-lived proteins, confluent cells were labeled with [3H]leucine (2 μCi/ml) for 48 h at 37° C. and then extensively washed and maintained in complete or amino acid depleted medium containing an excess of unlabeled leucine. Aliquots of the medium taken at different times were precipitated with trichloroacetic acid, and proteolysis was calculated as the amount of acid precipitable radioactivity converted into acid soluble at each time (Auteri et al., 1983). Where indicated, 20 mM NH4Cl and 100 μM leupeptine or 10 mM 3-methyladenine were added during the chase to block lysosomal proteolysis or macroautophagy, respectively.

DNAPK = DNAPK mRNA quantity in DLD-1 cells in response to ouabain; format: cell-based, human
From the text: (§1) hSMG1 is a member of the PIKK family, which also includes ATM, ATR, mTOR, and DNA-PK (Therien and Blostein, 2000). These large, structurally homologous, proteins have been implicated as participants in the cellular response to various forms of stress.

ATM = ATM mRNA quantity in DLD-1 cells in response to ouabain; format: cell-based, human
From the text: as §1

hSMG1 mRNA [1] = test: Drug library screen, hSMG1 mRNA quantitation by branched DNA assay in HeLa cells; format: cell-based, human
Experimental: HeLa cells were separately exposed to each drug from the drug library in a multiwell plate format. After 24 h, hSMG mRNA was captured and quantified using a branched DNA assay (Collins et al., 1997). Actin mRNA levels were simultaneously measured from the same cell lysate in order to compensate for differences in viable cell number as a consequence of drug treatment. […] Both agents bind to and inhibit the Na^+/K^+-ATPase (Therien and Blostein, 2000).
Drug Library Screen and hSMG1 message quantitation. The QuantiGene® Explore kit (Panomics, Inc.) was used to furnish a direct quantitation of mRNA in a 96 well format. The “housekeeper gene” […] was selected as an intracellular control. Specific oligonucleotide probes for hSMG1, including capture extenders (CE), label extenders (LE) and blocking probes (BL) were designed with the Panomics ProbeDesigner™ software and synthesized. Prior to drug exposure, HeLa cells were incubated for 24 hr in 150 μL Dulbecco's modified Eagle Medium (DMEM) with 10% fetal bovine serum (FBS) and DLD-1 cells were incubated for 24 hr in 150 μL MEM with 1 mM MEM nonessential amino acids, 1 mM sodium pyrurate, 0.15% sodium bicarbonate, and 10% FBS. Cells were then exposed to various concentrations of the drugs for 24 hr and then lysed via incubation in 75 μL lysis buffer (QuantiGene® Explore kit) at 53° C. for 1 hr. Capture of hSMG1 and actin mRNA was conducted according to the manufacturers instructions and quantification performed using a microplate luminometer.

hSMG1 mRNA [2] = test: hSMG1 mRNA quantitation (branched DNA assay) in DLD-1 cells exposed to ouabain; format: cell-based, human
Experimental: The QuantiGene® Explore kit (Panomics, Inc.) was used to furnish a direct quantitation of mRNA in a 96 well format. The “housekeeper gene” 13-actin was selected as an intracellular control. Specific oligonucleotide probes for hSMG1, including capture extenders (CE), label extenders (LE) and blocking probes (BL) were designed with the Panomics ProbeDesigner™ software and synthesized. Prior to drug exposure, HeLa cells were incubated for 24 hr in 150 μL Dulbecco's modified Eagle Medium (DMEM) with 10% fetal bovine serum (FBS) and DLD-1 cells were incubated for 24 hr in 150 μL MEM with 1 mM MEM nonessential amino acids, 1 mM sodium pyrurate, 0.15% sodium bicarbonate, and 10% FBS. Cells were then exposed to various concentrations of the drugs for 24 hr and then lysed via incubation in 75 μL lysis buffer (QuantiGene® Explore kit) at 53° C. for 1 hr. Capture of hSMG1 and actin mRNA was conducted according to the manufacturers instructions and quantification performed using a microplate luminometer.

[3] = tested on: hSMG1 transcription sites; test: Fluorescence in situ hybridization (FISH) of active hSMG1 transcription sites in DLD-1 cells; format: cell-based, human; conditions: ouabain 10 μM for 1 hr, untreated 0.19
From the text: The branched chain DNA assay affords an averaged expression response from a cell population. The magnitude of this response is a function of actin mRNA levels, a baseline that furnishes relative, but not absolute, hSMG1 mRNA quantity. Since actin mRNA levels may be susceptible to influence by these drugs as well, fluorescence in situ hybridization was employed to directly visualize hSMG1 mRNA transcription sites in the DLD-1 cell line. […] Furthermore, these enhanced levels of mRNA synthesis rate and quantity directly translate into higher proteins levels, as exemplified by the ouabain-induced 2.7-fold increase in hSMG1 protein in DLD-1 cells (FIG. 2).
Fluorescence in situ hybridization (FISH). Previously described oligomer probes, each 50 bases in length from four regions of the hSMG1 gene, were designed with OLIGO software from Molecular Biology Insights, Inc., and synthesized on an Applied Biosystems automated DNA/RNA synthesizer (Capodieci et al., 2005). The activated fluorophore cy3 (Amersham) was used to label the probes. DLD-1 cells were seeded onto gelatinized coverslips, incubated as described above for 24 hr, and then treated with ouabain (10 μm) for 1 hr. […] The FISH specimens were imaged and analyzed as previously described (Capodieci et al., 2005).

hSMG1 mRNA [4] = test: hSMG1 over-expression response to ouabain in other cell lines; format: cell-based
hSMG1 protein = hSMG1 protein quantitation by Western blot in DLD-1 cells; format: cell-based, human; conditions: 10 μM ouabain for 24 hr
Experimental: hSMG1 Protein Quantitation. DLD-1 cells were exposed to 10 μM ouabain for 24 hr and subsequently lysed. Total protein concentration, following centrifugation, was determined using the BCA Protein Assay Kit (Pierce). Following electrophoresis, the membrane was divided and the individual halves separately exposed to the SMG1 antibody BL1657 (Bethyl Laboratories) and the actin antibody A5441 (Sigma) and then subsequently incubated with the appropriate horseradish peroxidase conjugated secondary antibodies. The membranes were treated with the Pierce Supersignal West Pico chemiluminescent reagent and quantified.

mTOR = mTOR mRNA quantity in DLD-1 cells in response to ouabain; format: cell-based, human
From the text: as §1

ATR = ATR mRNA quantity in DLD-1 cells in response to ouabain; format: cell-based, human
From the text: as §1

HEK293 cells = test: Rate of proteolysis in HEK293 cells after hSMG1 RNAi knockdown; format: cell-based, human; conditions: RNAi knockdown of hSMG1, lysosomal inhibitor added
From the text: Autophagy is the quintessential cellular response to limited nutrient supplies and/or the presence of damaged cytoplasmic components (Levine and Yuan, 2005). The corresponding ouabain-induced overexpression of hSMG1 may be a biochemical mechanism by which metabolic homeostasis is re-established, either by inhibiting or promoting autophagy. The possible influence of hSMG1 on autophagy was examined via a series of RNAi knockdown experiments. […] Consequently, all knockdown experiments were performed using the 293 cell line. Following RNAi knockdown, cells were either exposed to or deprived of amino acids and the effect on the rate of proteolysis noted. […] Protein degradation is enhanced in RNAi knockdown cells versus their unaltered counterparts (FIG. 3a). […]
Intracellular Protein Turnover. Rates of protein synthesis were measured in confluent cells as the incorporation of [3H]leucine [10 μCi/ml (1 Ci=37 GBq)] into acid-insoluble material in the presence of an excess (2.8 mM) of unlabeled leucine in the medium (to minimize differences due to alteration of amino acid transport and/or intracellular amino acid pool sizes). […] Aliquots of the medium taken at different times were precipitated with trichloroacetic acid, and proteolysis was calculated as the amount of acid precipitable radioactivity converted into acid soluble at each time (Auteri et al., 1983). […]

**Q.** Which “lysosomal degradation sensitive to 3-methyladenine” value (DLD-1 cells; ouabain treated, 10 mM 3-methyladenine) does the source give for Cn1cnc(N)c2ncnc1-2 [3-methyladenine] here?
**A.** 30.5±3.4%

**Q.** And the “effect on ouabain-induced increase in protein degradation” value (“effect on ouabain-induced increase” below) (DLD-1 cells; ouabain treated)?
**A.** partially offsets the effect of ouabain

**Q.** With C[C@@H]1O[C@@H](O[C@H]2C[C@@H](O)[C@]3(CO)[C@H]4[C@H](O)C[C@]5(C)[C@@H](C6=CC(=O)OC6)CC[C@]5(O)[C@@H]4CC[C@]3(O)C2)[C@H](O)[C@H](O)[C@H]1O [Ouabain, ouabain] as the compound, how does the “change in DNAPK mRNA quantity” value (DNAPK) read?
**A.** 0.8±0.1 fold

**Q.** What about the “change in ATM mRNA quantity” value (ATM) of the same compound?
**A.** 1.1±0.1 fold

**Q.** And the “enhancement of hSMG1 expression levels” value (hSMG1 mRNA [1])?
**A.** 2 fold

**Q.** And the hSMG1 over-expression response (hSMG1 mRNA [2]; DLD-1 adenocarcinoma, ouabain 10 μM)?
**A.** 4.3±0.1 fold

**Q.** And the “enhancement in hSMG1 mRNA quantity” value (hSMG1 mRNA [2]; DLD-1 cells in response to ouabain)?
**A.** 4.3±0.1

**Q.** And the “hSMG1 Expression relative to untreated cells” value (hSMG1 mRNA [2]; DLD-1 cells, ouabain 10 μM alone, mean ± S.D. of three wells)?
**A.** 4.3 ± 0.1

**Q.** And the “fraction of cells displaying active hSMG1 transcription sites” value [3]?
**A.** 0.63±0.1

**Q.** What about the hSMG1 over-expression response (hSMG1 mRNA [4]; 786-0 renal carcinoma, ouabain 10 μM) of the same compound?
**A.** 6.1±0.4 fold

**Q.** And the hSMG1 over-expression response (hSMG1 mRNA [4]; GM02037 wild type fibroblast, ouabain 10 μM)?
**A.** 3.4±0.1 fold

**Q.** What about the hSMG1 over-expression response (hSMG1 mRNA [4]; HEK 293, ouabain 10 μM) of the same compound?
**A.** 3.3±0.2 fold

**Q.** And the hSMG1 over-expression response (hSMG1 mRNA [4]; PC3 prostate carcinoma, ouabain 10 μM)?
**A.** 2.7±0.2 fold

**Q.** What about the hSMG1 over-expression response (hSMG1 mRNA [4]; U87 glioblastoma, ouabain 10 μM) of the same compound?
**A.** 1.4±0.1 fold

**Q.** What about the hSMG1 over-expression response (hSMG1 mRNA [4]; primary astrocyte, ouabain 10 μM) of the same compound?
**A.** 5.4±0.1 fold

**Q.** And the “increase in hSMG1 protein” value (hSMG1 protein)?
**A.** 2.7 fold

**Q.** What about the “change in mTOR mRNA quantity” value (mTOR) of the same compound?
**A.** 1.3±0.1 fold

**Q.** And the “effect on proteolysis (degradation of long-lived proteins)” value (DLD-1 cells; ouabain 10 μM, compared with amino acid starvation)?
**A.** dramatically enhances proteolysis

**Q.** And the “change in ATR mRNA quantity” value (ATR)?
**A.** 0.7±0.1 fold

**Q.** Cl.N [ammonium chloride] was tested. Which “effect on protein degradation caused by hSMG1 knockdown” value (HEK293 cells) did it give?
**A.** only partly mitigates the effect of hSMG1 knockdown on protein degradation

**Q.** What about the “effect on ouabain-induced increase” value (DLD-1 cells; ouabain treated) of the same compound?
**A.** completely blocked

**Q.** Which “effect on ouabain-induced increase” value (DLD-1 cells; ouabain treated) does the source give for CC(=O)N[C@@H](CC(C)C)C(=O)N[C@@H](CC(C)C)C(=O)N[C@H](C=O)CCCNC(=N)N [leupeptin] here?
**A.** completely blocked
